Laboratory results reported in publication PMC11488110 (Theranostics, 2024).

Experiments:
hPPARα = target: T1, hPPARα (Homo sapiens, UniProt Q07869); experiment: In vitro co-transfection (PPRE-luciferase) assay in CV-1 cells, hPPARα; type: cell-based; settings: 24 h, read-out: Potency (EC50) hPPARα
T1 sequence (Q07869 1-468): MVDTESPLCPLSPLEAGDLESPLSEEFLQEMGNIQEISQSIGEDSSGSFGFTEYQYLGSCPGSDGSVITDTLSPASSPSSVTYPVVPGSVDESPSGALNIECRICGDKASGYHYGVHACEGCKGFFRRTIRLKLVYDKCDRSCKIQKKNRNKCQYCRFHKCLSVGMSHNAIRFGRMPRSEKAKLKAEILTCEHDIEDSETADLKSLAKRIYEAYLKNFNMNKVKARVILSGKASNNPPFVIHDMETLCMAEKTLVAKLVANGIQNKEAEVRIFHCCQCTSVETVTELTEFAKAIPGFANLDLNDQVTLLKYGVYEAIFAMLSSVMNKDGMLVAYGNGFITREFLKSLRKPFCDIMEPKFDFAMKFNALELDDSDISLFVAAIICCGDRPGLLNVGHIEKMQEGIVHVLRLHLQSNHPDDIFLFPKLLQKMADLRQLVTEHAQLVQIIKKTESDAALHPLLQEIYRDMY

[1] = Metabolic stability assay in liver microsomes; type: in vitro ADME, mouse; settings: 1 μM, 30 min
Method: The metabolic stability assay was performed by incubation of human and selected animal liver microsomes (dog, rat, and mouse) with the test compound at a final concentration of 1 μM, in the presence of 0.5 mg/ml microsomal protein and NADPH-regeneration system, in a total volume of 100 μL phosphate buffer 100 mM (pH 7.4) at 37 °C. The incubation was started by introducing the NADPH-regeneration system and terminated by adding 40 μL of ice-cold acetonitrile at 0- and 30 min. Precipitated proteins were removed by centrifugation at 10,000 g and 4 °C for 5 min. Aliquots of the supernatant were injected onto an LC-MS/MS system. Incubations terminated prior to addition of the NADPH-regeneration system (time point, 0 min) were used as standards, defined as 100%. Percent of the parent compound remaining was calculated by comparing peak areas.
(§1) Ta b l e S2 . CYP inhibition, microsomal stability, and hERG in hibition of 5a .
(§2) CYP inhibitiona Microsomal stabilityb
(§3) ( % of c ont rol ac ti vit y) (% of remaining compound) hERG inhibitionc (IC50, μ M) […]
aCytochrome P450 (CYP450) enzyme activity was measured by incubating CYP450 enzyme isotype-specific substrates and liver microsomes in the presence of the test compound (10 μM) for 15 min. […]

hERG channel = target: T2, hERG channel (Homo sapiens, UniProt Q12809); experiment: biochemical; settings: fluorescence polarization binding assay
T2 construct: purchased Invitrogen PV5365
T2 sequence (Q12809 whole entry): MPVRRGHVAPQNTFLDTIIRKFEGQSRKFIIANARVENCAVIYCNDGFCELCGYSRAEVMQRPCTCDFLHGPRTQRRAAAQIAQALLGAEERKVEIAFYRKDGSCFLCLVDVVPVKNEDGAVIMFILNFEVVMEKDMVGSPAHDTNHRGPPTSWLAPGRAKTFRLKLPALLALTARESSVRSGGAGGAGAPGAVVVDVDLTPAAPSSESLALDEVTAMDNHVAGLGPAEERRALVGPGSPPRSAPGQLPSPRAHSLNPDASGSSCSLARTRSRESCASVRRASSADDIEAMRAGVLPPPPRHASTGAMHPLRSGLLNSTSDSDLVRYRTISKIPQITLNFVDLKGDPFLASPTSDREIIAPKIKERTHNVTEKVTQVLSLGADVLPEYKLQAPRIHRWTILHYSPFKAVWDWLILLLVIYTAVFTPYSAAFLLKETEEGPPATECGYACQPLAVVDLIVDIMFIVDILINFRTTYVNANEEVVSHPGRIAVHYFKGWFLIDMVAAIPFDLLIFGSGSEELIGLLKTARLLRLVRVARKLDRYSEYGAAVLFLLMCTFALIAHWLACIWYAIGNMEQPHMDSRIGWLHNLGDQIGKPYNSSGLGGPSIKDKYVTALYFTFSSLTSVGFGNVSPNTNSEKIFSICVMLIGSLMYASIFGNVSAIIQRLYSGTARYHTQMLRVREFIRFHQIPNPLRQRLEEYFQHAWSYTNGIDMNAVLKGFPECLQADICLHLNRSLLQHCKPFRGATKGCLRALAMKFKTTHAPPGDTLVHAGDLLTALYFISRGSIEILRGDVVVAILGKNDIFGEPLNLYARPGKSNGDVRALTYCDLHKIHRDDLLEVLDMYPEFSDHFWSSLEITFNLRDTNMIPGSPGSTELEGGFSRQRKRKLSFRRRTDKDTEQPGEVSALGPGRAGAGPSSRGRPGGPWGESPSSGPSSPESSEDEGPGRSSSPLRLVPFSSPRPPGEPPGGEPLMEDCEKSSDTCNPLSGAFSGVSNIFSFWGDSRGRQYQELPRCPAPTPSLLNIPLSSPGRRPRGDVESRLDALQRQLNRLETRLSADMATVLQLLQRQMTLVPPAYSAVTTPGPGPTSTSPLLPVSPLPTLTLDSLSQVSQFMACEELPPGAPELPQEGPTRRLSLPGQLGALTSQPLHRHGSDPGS
Method: An hERG channel binding assay was performed using the Predictor hERG Fluorescence Polarization Assay Kit (PV5365, Invitrogen). […] Fluorescence intensity (excitation at 530 nm, emission at 590 nm) was measured using a multi-mode microplate reader Synergy Neo (Biotek). […]
as §1, §2, §3
aCytochrome P450 (CYP450) enzyme activity was measured by incubating CYP450 enzyme isotype-specific substrates and liver microsomes in the presence of the test compound (10 μM) for 15 min. Data are expressed as percent of CYP enzyme activity relative to that of t he v ehicle-treated control. bThe test compound was incubated with microsomes for 30 min and the percentage of the remaining compound was measured via liquid chromatography- tandem mass spectrometry (LC-MS/MS). cHuman Ether-à -go -go -related gene (hERG) channel binding assay was performed using a predictor hERG fluorescence polarization assay (Invitrogen); IC50 values were calculated with non-linear regression fit with four parameters. a- cThe results of these three assays were obtained through the in vitro ADME/Tox study service of KMEDIhub, a contract research organization (CRO). The reported measurements are the mean of […]

BV-2 microglial cells = experiment: HO-1 expression and intracellular ROS in BV-2 microglia; type: cell-based, mouse
Method: Total proteins were extracted from cells or mouse brain tissues using radioimmunoprecipitation assay (RIPA) buffer (Sigma-Aldrich) containing a protease and phosphatase inhibitor cocktail (Roche Diagnostics). After 30 min of incubation with RIPA buffer on ice, lysates were centrifuged at 15800 g and 4 °C for 20 min and supernatants were collected. Protein concentrations were determined using Pierce® BCA Protein Assay Kit (Thermo Fisher Scientific). Protein samples (10 μg) were separated on 10% SDS-PAGE gels and transferred to polyvinylidene fluoride (PVDF) membranes (Millipore). The membranes were blocked in 5% skim milk (Millipore) in TBST (10 mM Tris-HCl, pH 7.5, 150 mM NaCl, and 0.1% Tween® 20) for 1 h at room temperature and incubated overnight at 4 °C with primary antibodies. […] The western blot bands were analyzed using ImageJ software (NIH) and β-Actin or glyceraldehyde 3-phosphate dehydrogenase (GAPDH) were used as a loading control. […]
Intracellular ROS accumulation was monitored using the cell-permeable fluorescent probe DCFH-DA (Sigma-Aldrich). […] After washing with phosphate-buffered saline (PBS), cells were imaged with an ImageXpress Pico (Molecular Devices) and fluorescence intensity was quantified using the ImageJ software (NIH).

primary mouse astrocytes = experiment: Cytotoxicity assay (EZ-Cytox) in primary mouse astrocytes; type: cell-based; settings: up to 30 μM, 24 h
[2] = tested on: C57BL/6N mice with LPS-induced neuroinflammation; experiment: LPS-induced neuroinflammation mouse model; type: in vivo
[3] = 30 mg/kg p.o. 10 days, LPS 0.3 mg/kg 7 days
[4] = 30 mg/kg/day p.o., LPS 0.3 mg/kg/day i.p.

With `Cc1cc(SCc2[se]c(-c3ccc(C(F)(F)F)cc3)nc2C)ccc1OCC(=O)O` [Compound 5a, {2-Methyl-4-[4-methyl-2-(4-trifluoromethyl-phenyl)-selenazol-5-yl-methylsulfanyl]-phenoxy}-acetic acid] the EC50 (hPPARα) was > 10 µM, the “Microsomal stability, Mouse (% of remaining compound)” value [1] was 76.1 % of remaining compound and the “hERG inhibition (IC50)” value (hERG channel) was “low inhibitory effects”. For the same molecule, the IC50 (hERG channel; read-out: hERG inhibition (IC50)) was 9 µM, the “Intracellular ROS production (DCFH-DA)” value (BV-2 microglial cells; BV-2, 5 μM 24 h, H2O2 200 μM 20 min) was “suppressed ROS production” and the HO-1 expression (BV-2 microglial cells; BV-2, 48 h) was “increased the expression of HO-1”. For the same molecule, the “Cytotoxicity in primary astrocytes” value (primary mouse astrocytes) was “no cytotoxicity”, the “CD86 expression in IBA1-positive microglia” value [2, 3] was “significantly reduced the expression” and the “GFAP and IBA1 immunoreactivity, hippocampus and cortex” value [2, 3] was “inhibited”. The “Plasma TNF-α and IL-6” value [2, 3] was “prevented the LPS-induced increases”, the “Spleen size and weight” value [2, 3] was “reduced the size and weight of spleens” and the “Open-field motor activity (traveled distance, immobility time)” value [2, 4] was “improved motor activity”. The “Open-field time spent in the center” value [2, 4] was “spent more time in the center”, the “Passive avoidance step-through latency” value [2, 4] was “significantly prevented this decrease” and the “Y-maze number of arm entries” value [2, 4] was “increased the number of arm entries”. For the same molecule, the Y-maze spontaneous alternation [2, 4] was “higher percentage of spontaneous alternations”.
